Experimental data taken from patent US20250051301A1, “MUTANT IDH1 AND IDH2 INHIBITOR AND APPLICATION THEREOF” (Betta Pharmaceuticals Co., Ltd, priority 2022, published 2025).
Values after ≈ are worked out from the molar mass of the structure shown.

Key:
[1] = Pharmacokinetic detection in dogs; format: in vivo; conditions: beagle dogs
Description: Adult beagle dogs (6-12 months of age) received a single dose of the compounds to be tested via intravenous administration (IV) or oral gavage administration (PO), respectively. In the IV single dose, 5% DMSO+5% Solutol+90% physiological saline was used as the excipient; the intravenous administration was carried out at a dose of 1 mg/kg (2 females and 2 males); and the venous blood collection time was 5 min, 15 min, 0.5 h, 1 h, 2 h, 4 h, 6 h, 8 h, 10 h and 24 h. In the PO single dose, 5% DMSO+5% Solutol+90% purified water was used as the excipient; the oral gavage administration was carried out at a dose of 5 mg/kg (2 females and 2 males); and the blood collection time was 15 min, 0.5 h, 1 h, 2 h, 4 h, 6 h, 8 h, 10 h and 24 h. Blood samples were collected in tubes containing EDTA anticoagulants and centrifuged at 4000 rpm at 4° C. for 10 min, and the supernatants were transferred to centrifuge tubes and stored at −20° C. For the detection, 30 μL of the plasma supernatant sample was taken, and 200 μL of an internal standard solution was added. The mixture was centrifuged at 3000 rpm for 10 minutes. Then, 100 μL of the supernatant solution was diluted with water at a 1:1 ratio and then injected with an injection volume of 5 μL. The concentration of the compounds to be tested in the plasma sample was analyzed by liquid chromatography-tandem mass spectrometry (LC-MS/MS). Plasma concentration-time data for individual animals were analyzed using Sciex Analyst software. The non-compartment model was introduced into the concentration analysis, and pharmacokinetic parameters (Cl_obs, Cmax and AUClast) of the compounds to be tested were calculated using WinNonlin (version 4.1; pHarsight) software.

[2] = Kinetic solubility experiment; format: physicochemical; conditions: buffer, kinetic from dmso stock
Description: 1. Preparation of Solutions/Buffers at Different pH Values
• Solution A: 17.42 g of K2HPO4 was weighed and dissolved in 1 L of ultrapure water. • Solution B: 13.65 g of KH2PO4 was weighed and dissolved in 1 L of ultrapure water.
A certain mass of substance to be tested was accurately weighed and dissolved in a certain volume of DMSO to obtain a 20 mM or 10 mM stock solution.
An acetonitrile stopping solution containing 1 ng/mL of labetalol and glibenclamide was prepared.
3. Incubation System (n=3)
The above-mentioned solutions were placed in a 96-well plate, respectively and shaken in a thermostatic oscillator for 2 hours (37° C., 150 rpm).
4. Control solution: 200 μM control solution of the substance to be tested was prepared in methanol. 5. Sample treatment
At a predetermined time, the 96-well plate was placed in a centrifuge and centrifuged at 4100 rpm for 15 minutes. A certain volume of the supernatant and a certain volume of control solution were respectively taken into 19 times volume of water containing 70% acetonitrile that has been previously added. The mixture was uniformly mixed, diluted 20 times with an internal standard stop solution and shaken in a thermostatic oscillator at 700 rpm at room temperature for 5 min. Further dilution may be necessary depending on the sensitivity of the compound, and sample analysis was performed by LC-MS/MS.
The ratio of compound peak area to internal standard peak area was used for calculation. According to the concentration relationship between the compound in the buffer and the control solution, the calculated concentration was the kinetic solubility, and the calculation formula was as follows:
Solubility(μg/mL)=mass spectral peak area of the compound to be tested in buffers at different pHs×200μM×molecular weight of the compound to be tested(MW)/mass spectral peak area of the compound to be tested in methanol/1000;

IDH2^R140Q = molecular target: T1, IDH2^R140Q (Homo sapiens, UniProt P48735, R140Q); test: Enzyme activity inhibition assay (fluorescence-based), IDH2 R140Q; format: biochemical; conditions: numeric values
T1 sequence (P48735 40-452 R140Q): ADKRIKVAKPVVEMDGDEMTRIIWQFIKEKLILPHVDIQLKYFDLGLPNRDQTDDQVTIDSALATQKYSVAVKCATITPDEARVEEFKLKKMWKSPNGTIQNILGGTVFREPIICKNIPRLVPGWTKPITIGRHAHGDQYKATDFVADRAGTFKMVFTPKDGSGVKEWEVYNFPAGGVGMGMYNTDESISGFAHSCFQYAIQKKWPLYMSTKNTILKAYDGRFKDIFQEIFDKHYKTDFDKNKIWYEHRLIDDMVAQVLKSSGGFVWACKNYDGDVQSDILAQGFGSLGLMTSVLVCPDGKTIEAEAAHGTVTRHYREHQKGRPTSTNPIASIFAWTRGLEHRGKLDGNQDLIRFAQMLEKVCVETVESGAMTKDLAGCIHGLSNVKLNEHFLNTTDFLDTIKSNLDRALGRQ
Description: The inhibitory ability of the compounds on the enzyme activities of IDH1^R132H and IDH2^R140Qwas detected and expressed as the half inhibitory concentration (IC50) value. AG-881 was used as a positive control compound. In this experiment, compounds were screened on enzymes IDH1^R132H and IDH2^R140Q using a fluorescence-based method (initial concentration: 10000 nM, 3-fold dilution, 10 concentrations, and single-well detection). • (1) Preparation of 1×assay buffer. • (2) Preparation of compound concentration gradient: the compounds to be tested were assayed at an initial concentration of 10000 nM, with 3-fold dilution and 10 concentrations, and diluted into 200-fold the final concentration in 100% DMSO solution in a 384-well plate. • (3) 250 nL of DMSO and 250 nL of diluted compounds were transferred to a reaction plate with Echo 550. • (4) IDH2^R140Q enzyme detection: 25 μL of an IDH2^R140Q enzyme solution was added, and the mixture was incubated for 60 minutes; then 25 μL of a substrate solution was added, and the mixture was incubated for 150 minutes; then 25 μL of a detection buffer was added, and the mixture was shaken for 1 minute and incubated for 60 minutes; and finally, Synergy 2, Ex544/Em590 cutoff 590 was used for reading. • (5) IDH1^R132H enzyme detection: 40 μL of a mixture solution of an IDH1^R132H enzyme at the 1.25-fold final concentration and NADPH was added, and the mixture was incubated for 60 minutes; then 10 μL of a substrate solution at the 5-fold final concentration was added, and the mixture was incubated for 90 minutes; then 25 μL of a detection buffer at the 3-fold final concentration was added, and the mixture was shaken for 1 minute. and finally, Synergy 2, Ex544/Em590 cutoff 590 was used for reading. • (8) Inhibition rate calculation, formula: % Inhibition=(RFU_sample−RFU_min)/(RFU_max−RFU_min)*100%, wherein RFU-sample represents the fluorescence intensity of a sample; RFU-min represents the average value of negative control wells and represents the fluorescence intensity with an enzyme; and RFU-max represents the average value of positive control wells and represents the fluorescence intensity without an enzyme. The curve fitting was performed using Graphpad Prism software to obtain IC50 values, and the test results were as shown in table 2.

[3] = both sexes, dog, plasma, PO, 5 mg/kg

Cl_obs ([1]; IV, 1 mg/kg): 5.1 mL/min/kg | AUC(0-t) ([1]; both sexes, dog, plasma, IV, 1 mg/kg): 2630 ng·h/mL | AUC(0-t) [1, 3]: 11700 ng·h/mL | Cmax [1, 3]: 1160 ng/mL | solubility at 2 h ([2]; aqueous buffer, pH = 3.0, 37° C.): 53.3 µg/mL (≈ 119 µM) | solubility at 2 h ([2]; aqueous buffer, pH = 5.0, 37° C.): 59.5 µg/mL (≈ 133 µM) | solubility at 2 h ([2]; aqueous buffer, pH = 7.4, 37° C.): 48.1 µg/mL (≈ 107 µM) | solubility at 2 h ([2]; simulated gastric fluid, pH = 1.0, 37° C.): 86.6 µg/mL (≈ 193 µM) | IC50 (IDH2^R140Q): 190 nM
SMILES: C[C@@H](Nc1nc(N[C@H](C)C(F)(F)F)nc(-c2cc(F)c(N)c(Cl)n2)n1)C(F)(F)F [Example 5, 6-(5-amino-6-chloro-4-fluoropyridin-2-yl)-N^2,N^4-bis((R)-1,1,1-trifluoropropyl-2-yl)-1,3,5-triazine-2,4-diamine]
